Experimental findings from US20190070214A1 (priority 2016, published 2019) are described below.

Values joined by “and” are separate entries in the source; they are usually repeats but may differ in a detail not shown here. Equal entries are not always repeated. Positions of bridges follow the written chain, without caps; N, C: chain ends. Non-standard residues stand in square brackets, D forms with d. Residues, ends and D or L forms follow the SMILES beside them. *: point of attachment. Ileψ(thiazoline)Cys = CC[C@H](C)[C@H](N)C1=N[C@H](C(=O)*)CS1; dOrn = NCCC[C@@H](N)C(=O)O

The subject of one experiment is Clostridium perfringens. It is filed as in vivo, broiler chicks.
Experiment [1] in a line: TNBS-induced colitis, body weight.
Experiment [2] can be described thus: TNBS-induced colitis, colon length and weight. The note with it: Group 2, prednisolone 1 mg/kg/dose t.i.d.; day 5; individual animals.
Experiment [3] in a line: TNBS-induced colitis, histopathology of colon. The note with it: day 5.
The nature of experiment [4]: TNBS-induced colitis, video endoscopy colitis score.
The mark [5] stands for this setting: Group 2, prednisolone 1 mg/kg/dose t.i.d. p.o. + TNBS, individual animals.
[6] abbreviates: Group 2, prednisolone 1 mg/kg/dose t.i.d., mean per animal, scale 0-4 (Table 3).
Setting [7] is: Group 2, prednisolone 1 mg/kg/dose t.i.d., individual animals, scale 0-4 (Table 2).

In the case of `CC[C@H](C)[C@H](N)C1=N[C@H](C(=O)N[C@@H](CC(C)C)C(=O)N[C@H](CCC(=O)O)C(=O)N[C@H](C(=O)N[C@H]2CCCCNC(=O)[C@H](CC(N)=O)NC(=O)[C@@H](CC(=O)O)NC(=O)[C@H](Cc3cnc[nH]3)NC(=O)[C@@H](Cc3ccccc3)NC(=O)[C@H]([C@@H](C)CC)NC(=O)[C@@H](CCCN)NC2=O)[C@@H](C)CC)CS1` [BMD, bacitracin] ({Ileψ(thiazoline)Cys}-L[dE]IK[dOrn]I[dF]H[dD]N; lactam 4-C), the “necrotic enteritis (NE) of the GI tract, figure given for BMD” value in the experiment on Clostridium perfringens (BMD positive control in water, P<0.05, meaning of figure unclear) is 93%. Besides, the “mortality normalized to untreated (100%)” value in the experiment on Clostridium perfringens (total aggregate deaths up to and including day 14) came out at 45%.

On to `C[C@]12C=CC(=O)C=C1CC[C@@H]1[C@@H]2[C@@H](O)C[C@@]2(C)[C@H]1CC[C@]2(O)C(=O)CO` [Prednisolone], for which, in experiment [1] (setting [5]), the “Animal Weights Day 0” value was 23.09 and 25.03 and 23.28 and 23.97 and 22.64 and 24.58 and 24.61 and 25.53 and 25.1 and 24.95; the “Animal Weights Day 1” value was 20.19 and 21.15 and 20.41 and 20.78 and 20.62 and 21.89 and 22.21 and 22.35 (2×) and 22.44; the “Animal Weights Day 2” value is 19.12 and 20.17 and 19.33 and 19.52 and 20.33 and 20.83 and 22.81 and 21.35 and 22.46 and 23.66; the “Animal Weights Day 3” value is 18.77 and 19.45 and 18.6 and 19.09 and 22.59 and 21.38 and 23.44 and 21.24 and 23.92 and 24.77. Moreover, in experiment [1] (setting [5]), the “Animal Weights Day 4” value is 18.36 and 19.11 and 19.32 and 18.56 and 22.41 and 21.65 and 23.51 and 22.09 and 23.48 and 23.97; the “Animal Weights Day 5” value is 19.28 and 20.1 and 21.49 and 19.89 and 22.48 and 22.05 and 24.03 and 23.91 and 24.24 and 24.3; the “Animal Weights Day −1” value is 23.94 and 25.76 and 24.35 and 24.86 and 24.02 and 25.97 and 26.64 and 26.78 and 27.15 and 27.02. The “average weight loss from starting weight” value in experiment [1] (day 2, prednisolone 1 mg/kg/dose t.i.d. p.o.) worked out at 18.3%. Also, in experiment [2], the “Colon Length” value is 8 (3×) and 6.4 and 8.5 and 7.2 (2×) and 7 and 6.5 and 7.5; the “Colon Weight” value was 0.334 and 0.344 and 0.392 and 0.386 and 0.248 and 0.276 and 0.24 and 0.318 and 0.35 and 0.224. Further, in experiment [3] (setting [6]), the “Histology Scores Edema” value was 1.20 (4×) and 0.83 (2×) and 0.50 and 0.67 and 1.40 and 0.80; the “Histology Scores Inflam” value was 1.60 and 1.40 and 1.00 (3×) and 0.83 (2×) and 0.33 and 0.67 and 0.80; the “Histology Scores Necrosis” value is 1.00 and 0.80 (3×) and 0.40 and 0.67 and 0.00 and 0.33 and 0.50 and 0.60. The “edema scores vs vehicle control” value in experiment [3] (prednisolone, p=0.004) was “significantly lower”. In experiment [3] (prednisolone, p=0.007), the “sum pathology scores vs vehicle control” value was “significantly lower”. Further, in experiment [4] (setting [7]), the “Endo Score Day 3” value is 2 (4×) and 1 (2×) and 3 and 4 (3×); the “Endo Score Day 5” value is 3 (3×) and 2 (5×) and 4 and 1. Moreover, the “colitis score of representative endoscopy image” value in experiment [4] (day 5, prednisolone, scale 0-4, vehicle 3) turned out to be 2. Besides, in experiment [4] (prednisolone 1 mg/kg/dose t.i.d., day 3 p=0.010, day 5 p=0.027), the “mean colitis scores vs vehicle control” value is “significantly reduced mean colitis scores”.
